# From paper PMC5772529 (Scientific Reports, 2018)
# Positions of bridges follow the written chain, without caps; N, C: chain ends. Residues, ends and D or L forms follow the SMILES beside them.
# What was measured:
# [1] = target: T1, human CaV2.2 (α1B, β3, α2δ1) (Homo sapiens, UniProt Q00975); test: cell-based; design: Emax: dose or concentration left out as unconfirmed
# T1 construct: expressed in transfected cells
# Beagle dogs = conditions: dog, in vivo
# T1 sequence (Q00975 whole entry, looked up): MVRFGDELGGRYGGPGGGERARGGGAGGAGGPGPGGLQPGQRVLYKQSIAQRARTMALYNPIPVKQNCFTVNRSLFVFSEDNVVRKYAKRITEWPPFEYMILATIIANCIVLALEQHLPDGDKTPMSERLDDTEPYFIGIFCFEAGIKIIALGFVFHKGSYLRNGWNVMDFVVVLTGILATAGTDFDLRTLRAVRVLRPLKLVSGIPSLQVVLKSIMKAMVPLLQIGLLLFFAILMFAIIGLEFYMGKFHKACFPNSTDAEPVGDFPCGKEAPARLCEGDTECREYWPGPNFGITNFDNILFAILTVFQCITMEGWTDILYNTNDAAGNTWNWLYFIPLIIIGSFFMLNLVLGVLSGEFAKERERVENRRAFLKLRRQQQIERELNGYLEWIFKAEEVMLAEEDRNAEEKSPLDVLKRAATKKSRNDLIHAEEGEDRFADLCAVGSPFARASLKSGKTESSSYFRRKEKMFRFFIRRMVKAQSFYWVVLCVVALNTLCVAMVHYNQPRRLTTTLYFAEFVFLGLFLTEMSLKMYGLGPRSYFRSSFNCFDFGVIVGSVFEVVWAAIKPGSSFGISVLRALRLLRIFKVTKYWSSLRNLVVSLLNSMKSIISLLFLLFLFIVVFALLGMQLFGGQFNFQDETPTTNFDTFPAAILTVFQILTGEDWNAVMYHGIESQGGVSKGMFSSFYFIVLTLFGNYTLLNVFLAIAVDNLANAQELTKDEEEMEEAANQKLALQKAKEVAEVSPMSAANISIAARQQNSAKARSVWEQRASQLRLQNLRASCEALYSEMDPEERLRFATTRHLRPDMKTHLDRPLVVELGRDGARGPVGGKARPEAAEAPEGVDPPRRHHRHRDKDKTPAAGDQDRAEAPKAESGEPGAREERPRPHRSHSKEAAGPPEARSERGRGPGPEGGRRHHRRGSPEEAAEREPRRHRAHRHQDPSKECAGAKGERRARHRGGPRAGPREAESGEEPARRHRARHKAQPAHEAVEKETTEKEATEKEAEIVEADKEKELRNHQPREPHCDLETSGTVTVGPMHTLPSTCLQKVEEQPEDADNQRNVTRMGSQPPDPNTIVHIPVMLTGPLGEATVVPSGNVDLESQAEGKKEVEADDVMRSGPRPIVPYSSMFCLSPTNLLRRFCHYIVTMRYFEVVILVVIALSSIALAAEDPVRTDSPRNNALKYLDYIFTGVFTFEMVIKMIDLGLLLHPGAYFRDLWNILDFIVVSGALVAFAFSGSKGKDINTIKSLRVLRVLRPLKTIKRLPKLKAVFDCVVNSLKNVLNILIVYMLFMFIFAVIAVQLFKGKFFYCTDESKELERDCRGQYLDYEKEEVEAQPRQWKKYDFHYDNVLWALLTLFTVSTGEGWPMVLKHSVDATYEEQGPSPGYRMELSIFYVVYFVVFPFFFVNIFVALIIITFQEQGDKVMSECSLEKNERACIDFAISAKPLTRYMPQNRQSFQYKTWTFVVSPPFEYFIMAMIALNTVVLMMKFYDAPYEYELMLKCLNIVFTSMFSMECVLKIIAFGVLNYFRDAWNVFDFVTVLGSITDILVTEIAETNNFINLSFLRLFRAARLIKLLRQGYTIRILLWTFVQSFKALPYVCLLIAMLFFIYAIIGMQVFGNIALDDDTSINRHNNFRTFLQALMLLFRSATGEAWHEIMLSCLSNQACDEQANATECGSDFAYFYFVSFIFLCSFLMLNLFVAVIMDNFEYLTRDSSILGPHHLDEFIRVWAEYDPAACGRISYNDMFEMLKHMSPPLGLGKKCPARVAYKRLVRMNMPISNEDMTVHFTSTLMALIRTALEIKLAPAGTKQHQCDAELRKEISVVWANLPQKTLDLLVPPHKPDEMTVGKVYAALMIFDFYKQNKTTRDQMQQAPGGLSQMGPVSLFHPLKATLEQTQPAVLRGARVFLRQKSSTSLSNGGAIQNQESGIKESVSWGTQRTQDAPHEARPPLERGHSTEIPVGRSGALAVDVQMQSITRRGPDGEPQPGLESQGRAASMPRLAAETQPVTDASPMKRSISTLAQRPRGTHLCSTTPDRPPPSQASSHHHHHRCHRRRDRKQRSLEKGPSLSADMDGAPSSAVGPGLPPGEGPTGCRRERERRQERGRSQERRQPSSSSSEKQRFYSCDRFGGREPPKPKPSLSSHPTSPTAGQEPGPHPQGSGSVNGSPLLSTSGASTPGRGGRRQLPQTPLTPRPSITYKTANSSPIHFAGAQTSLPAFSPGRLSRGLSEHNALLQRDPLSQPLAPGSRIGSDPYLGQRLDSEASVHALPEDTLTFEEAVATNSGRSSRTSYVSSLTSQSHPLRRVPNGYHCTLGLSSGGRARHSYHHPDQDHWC
structure (smiles),measurement,setting,value
"CSCC[C@@H]1NC(=O)[C@@H]2CSSC[C@H](NC(=O)CN)C(=O)N[C@@H](CSSC[C@@H](C(N)=O)NC(=O)[C@H](CC(C)C)NC(=O)[C@H](CC(N)=O)NC(=O)[C@@H]3CCCN3C(=O)[C@H](CC(N)=O)NC(=O)[C@H](CCCCN)NC(=O)[C@H](CC(C)C)NC1=O)C(=O)N[C@@H](CO)C(=O)N[C@@H](CC(N)=O)C(=O)N1CCC[C@H]1C(=O)N[C@@H](C)C(=O)N2 [Eu1.6] (H-GCCSNPACMLKNPNLC-NH2; disulfide 2-8, 3-16)",IC50,[1],1.1 nM
same,maximum block of CaV2.2,[1],< 50%
same,reduction of peak current density,[1],> 40%
same,inhibition at 1 µM,"[1]; HEK293, read-out: inhibition of depolarization-activated Ba2+ current amplitude",> 30%
same,Emax,"[1]; HEK293, read-out: maximal effect (partial inhibitor)",40%
same,"physiological impairments of baseline parameters (locomotion, cardiac and respiratory function)",Beagle dogs,no physiological impairments
